Laboratory results: patent US9757375B2, “Compounds that inhibit human DNA ligases and methods of treating cancer” (University of Maryland, Baltimore, priority 2007, dated 2017)
Read-outs that look alike come from different tables or passages of the source.

Key:
hLigI = molecular target: T1, hLigI (Homo sapiens, UniProt P18858); test: High-throughput fluorescence-based DNA joining (ligation) assay; format: biochemical
T1 construct: made in house
Description: (§1) Candidate ligase inhibitors identified by CADD were assayed for their ability to inhibit hLigI and T4 DNA ligase using a high-throughput, fluorescence energy transfer-based DNA joining assay (22). Duplicate reactions (30 μL) containing 10 pmol of nicked DNA substrate and either 0.25 pmol of hLigI or 10 units of T4 DNA ligase were incubated in the presence or absence of 100 μmol/L of the putative inhibitor. DNA binding by the candidate DNA ligase inhibitors was measured by displacement of ethidium bromide from DNA as previously described (30).
(§2) The method for screening compounds comprises testing the compound for the ability to inhibit human DNA ligases I, III and IV with a high throughput fluorescence-based ligation assay. In this assay, phosphodiester bond formation covalently links together two oligonucleotides, one of which is a fluorescent donor AF488 that is 11 nucleotides from the 3′ terminus and the other contains a fluorescence acceptor and quencher, BHQ1 that is 15 nucleotides from the 5′ terminus. When these oligonucleotides are present in separate duplexes and in the same nicked or intact duplex, there is no significant quenching of fluorescence because the donor and acceptor are too far apart. As single-strands neither the AF488 oligonucleotide nor the BHQ1 oligonucleotides have significant secondary structure. However, when these oligonucleotides are ligated together, the resultant single strand forms a stable hairpin structure, in which the AF488 and BHQ1 groups are very close together, resulting in efficient intra-molecular quenching of fluorescence. Thus, in the DNA joining assay, the DNA substrate is denatured after incubation with the DNA ligase and then renatured in the presence of a 20-fold excess of an oligonucleotide that is identical to the ligated strand containing the fluorescent door and acceptor except that it lacks these modifications. Using this assay, DNA joining, which results in reduced fluorescence at 518 nm, can be measured rapidly, quantitatively and with high-throughput using a fluorescence plate reader.
(§3) Applicants developed a novel high throughput fluorescence-based ligation assay by modifying the sequence of the oligos to optimize hairpin formation by the single strand ligated product of the high throughput fluorescence-based ligation assay of Chen et al (22). […] Compound stock solutions, which were 10 mM in 0.5% DMSO, were diluted in 0.5% DMSO. Human DNA ligases I and III were assayed with a nicked DNA substrate whereas as the substrate for human DNA ligase IV was two oligonucleotide duplexes with short complementary single strand ends.

human DNA ligase III = molecular target: T2, human DNA ligase III (Homo sapiens, UniProt P49916); test: as above; format: biochemical
T2 sequence (P49916 1-862 isoform P49916-4): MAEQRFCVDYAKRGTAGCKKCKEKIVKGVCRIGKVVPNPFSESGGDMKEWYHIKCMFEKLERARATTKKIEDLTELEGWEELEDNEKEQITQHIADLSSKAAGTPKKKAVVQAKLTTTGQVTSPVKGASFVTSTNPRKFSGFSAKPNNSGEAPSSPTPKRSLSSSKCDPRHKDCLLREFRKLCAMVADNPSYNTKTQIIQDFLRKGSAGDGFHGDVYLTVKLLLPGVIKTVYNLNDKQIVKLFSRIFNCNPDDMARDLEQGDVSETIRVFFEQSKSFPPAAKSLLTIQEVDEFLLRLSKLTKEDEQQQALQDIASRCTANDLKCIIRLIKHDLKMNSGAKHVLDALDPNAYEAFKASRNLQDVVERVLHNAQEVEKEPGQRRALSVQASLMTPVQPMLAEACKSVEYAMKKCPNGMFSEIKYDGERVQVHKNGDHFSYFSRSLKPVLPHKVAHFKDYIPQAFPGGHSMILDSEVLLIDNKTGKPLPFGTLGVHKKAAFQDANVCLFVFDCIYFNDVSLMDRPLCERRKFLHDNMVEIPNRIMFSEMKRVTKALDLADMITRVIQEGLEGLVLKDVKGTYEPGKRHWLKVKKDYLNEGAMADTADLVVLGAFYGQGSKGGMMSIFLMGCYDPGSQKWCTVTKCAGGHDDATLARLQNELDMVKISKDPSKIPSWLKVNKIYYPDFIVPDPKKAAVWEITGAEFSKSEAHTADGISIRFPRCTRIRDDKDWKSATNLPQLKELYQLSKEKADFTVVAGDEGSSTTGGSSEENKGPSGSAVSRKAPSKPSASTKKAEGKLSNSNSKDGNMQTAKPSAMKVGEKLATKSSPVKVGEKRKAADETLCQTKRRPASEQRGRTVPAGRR
Source text: as §2, §3

human DNA ligase IV = human DNA ligase IV (Homo sapiens, UniProt P49917); test: as above; format: biochemical
Sequence of human DNA ligase IV (P49917 whole entry): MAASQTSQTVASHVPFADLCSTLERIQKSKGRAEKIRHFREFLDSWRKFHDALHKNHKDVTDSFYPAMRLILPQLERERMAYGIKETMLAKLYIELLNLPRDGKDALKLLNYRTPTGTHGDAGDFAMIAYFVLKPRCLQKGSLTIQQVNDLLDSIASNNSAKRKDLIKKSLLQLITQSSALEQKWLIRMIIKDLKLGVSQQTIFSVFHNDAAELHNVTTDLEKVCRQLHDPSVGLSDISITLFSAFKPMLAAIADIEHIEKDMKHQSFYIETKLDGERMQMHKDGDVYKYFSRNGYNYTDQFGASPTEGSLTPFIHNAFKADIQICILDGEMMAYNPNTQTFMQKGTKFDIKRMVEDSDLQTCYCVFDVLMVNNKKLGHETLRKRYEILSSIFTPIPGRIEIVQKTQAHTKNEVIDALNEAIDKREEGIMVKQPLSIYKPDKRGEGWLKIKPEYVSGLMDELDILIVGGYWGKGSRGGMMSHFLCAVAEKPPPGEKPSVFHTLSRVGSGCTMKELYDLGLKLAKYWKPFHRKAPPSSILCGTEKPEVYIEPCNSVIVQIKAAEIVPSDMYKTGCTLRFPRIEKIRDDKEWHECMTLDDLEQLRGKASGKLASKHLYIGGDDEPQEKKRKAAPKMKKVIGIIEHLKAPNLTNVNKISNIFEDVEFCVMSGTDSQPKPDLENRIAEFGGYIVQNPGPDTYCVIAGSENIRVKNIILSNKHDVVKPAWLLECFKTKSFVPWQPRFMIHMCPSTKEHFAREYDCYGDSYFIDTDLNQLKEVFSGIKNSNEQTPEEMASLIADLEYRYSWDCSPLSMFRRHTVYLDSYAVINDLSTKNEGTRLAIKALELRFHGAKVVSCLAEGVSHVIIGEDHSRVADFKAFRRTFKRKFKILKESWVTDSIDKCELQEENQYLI
Sequence of human DNA ligase IV (Q13426 whole entry partner): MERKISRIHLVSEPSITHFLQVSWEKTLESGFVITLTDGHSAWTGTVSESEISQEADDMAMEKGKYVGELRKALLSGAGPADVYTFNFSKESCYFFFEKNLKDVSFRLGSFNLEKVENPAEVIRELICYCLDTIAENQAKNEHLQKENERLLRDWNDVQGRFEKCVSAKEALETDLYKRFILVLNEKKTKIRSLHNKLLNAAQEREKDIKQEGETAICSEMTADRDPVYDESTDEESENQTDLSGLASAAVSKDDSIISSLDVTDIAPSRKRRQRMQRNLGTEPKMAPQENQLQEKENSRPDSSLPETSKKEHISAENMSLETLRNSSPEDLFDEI
Source text: as §2, §3

T4 DNA ligase = molecular target: T3, T4 DNA ligase (Enterobacteria phage T4, UniProt P00970); test: High-throughput fluorescence-based DNA joining assay, non-specific inhibitor control; format: biochemical, bacteriophage T4; details: 100 μM; read-out: In vitro % inhib T4 100
T3 construct: purchased NEB
T3 sequence (P00970 1-487): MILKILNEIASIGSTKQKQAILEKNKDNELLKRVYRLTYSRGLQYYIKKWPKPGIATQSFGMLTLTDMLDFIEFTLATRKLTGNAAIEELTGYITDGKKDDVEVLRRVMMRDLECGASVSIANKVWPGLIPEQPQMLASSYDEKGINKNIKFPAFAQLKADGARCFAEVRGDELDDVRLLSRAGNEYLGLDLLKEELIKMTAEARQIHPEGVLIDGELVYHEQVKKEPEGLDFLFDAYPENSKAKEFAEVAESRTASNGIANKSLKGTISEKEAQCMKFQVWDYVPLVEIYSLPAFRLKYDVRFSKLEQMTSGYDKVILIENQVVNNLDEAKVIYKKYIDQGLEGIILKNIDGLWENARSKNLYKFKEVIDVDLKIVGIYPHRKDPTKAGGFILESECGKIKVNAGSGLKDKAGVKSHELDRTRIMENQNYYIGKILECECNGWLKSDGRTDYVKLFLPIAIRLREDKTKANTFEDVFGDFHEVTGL
Description: as §1
In addition, to identify compounds that may be non-specific inhibitors of DNA joining, the 192 compounds were also assayed for their ability to inhibit bacteriophage T4 DNA ligase, an enzyme that utilizes the same reaction mechanism as hLigI, has similar adenylation and OB-fold domains but lacks a DBD domain. (6) Although this is also an ATP-dependent DNA ligase, it lacks the domain containing the binding pocket targeted by the in silico screen. Compounds that inhibited T4 DNA ligase were eliminated as non-specific inhibitors that most likely bind to the DNA.

[1] = system: MCF7, HCT116, HeLa, and MCF10A cells; test: Survival assay on cell panel (FIG. 9); format: cell-based, human; details: Homo sapiens; cell line not stated
Source text: FIG. 9. […] A, effect of L67 (left) and L189 (right) on the survival of MCF7 (Δ), HCT116 (□), HeLa (⋄), and MCF10A (upsidedown triangle) cells. B, normal breast epithelial MCF10A cells (open symbols) and breast cancer MCF7 cells (filled symbols) in the absence (circles) or presence of 3 μmol/L of L67 (squares) were exposed to increasing concentrations of MMS (left). Normal breast epithelial MCF10A cells (open symbols) and colon cancer HCT116 cells (filled symbols) in the absence (circles) or presence of 20 μmol/L of L189 (squares) were exposed to increasing doses of ionizing radiation (right). C, hLigI (I), hLigIIIα (III), and hLigIV (IV) were detected in extracts (400 μg) of the indicated cell lines by immunoblotting. To control for extract loading β-actin was also detected by immunoblotting.
For survival assays, cells were plated in 6 well plates and grown either in the absence or presence of ligase inhibitors. Where indicated, either MMS (0-50 μM) was added to the medium or the cells were irradiated in a Cs-137 irradiator (0-2.5 Gy). After two weeks, colonies were stained with crystal violet (Sigma) and then counted.

HCT116 cells [2] = test: Screen for potentiation of DNA damaging agents (MMS, camptothecin, cis-platinum, 3 aminobenzamide, ionizing radiation); format: cell-based, human; details: compound alone vs combination with MMS (100 μM); 1 = no sensitization
Source text: The 192 human DNA ligase inhibitors were screened in parallel for effects on proliferation and the ability to potentiate the effects of several DNA damaging agents using two cell human lines, a colon cancer line HCT116 and a normal breast epithelial cell line MCF10A using a Biomek FX Laboratory Automation Workstation as described (23). The DNA damaging agents used, methyl methanesulfonate (MMS), camptothecin, cis-platinum, 3 aminobenzamide and ionizing radiation, are representatives of classes of agents used to treat cancer. Briefly, HCT116 and MCF10A cells were plated in 96 well plates such that the cultures were about 80% confluent after 5 days incubation. Compounds were added to the cultures at either 15 μM or 50 μM 1 day after plating. After incubation for 3 days, cell lysed in a solution containing 1.2% Igepal CA-630 and SYBR green that stains DNA (1:1000, Molecular Probes, Eugene, Oreg.). Subsequently, fluorescence was measured per well. The studies with DNA damaging agents were performed as follows. […] For ionizing radiation, cells were pre-incubated with the compounds at 50 μM for 1 hour prior to exposure to 2 gray of ionizing radiation. Cultures were incubated for 3 days and then treated as above.

HCT116 cells [3] = test: MTT cell growth assay; format: cell-based, human; details: Homo sapiens, HCT-116
Description: (§4) The activity of hits from the initial screen was further validated using the MTT assay. Briefly, MCF10A and HCT116 cells were seeded in 96 well plates at 300 and 1200 cells per well, respectively, and allowed to adhere overnight. The following day, serial dilutions of compounds in media were added to the cells in a final volume 200 μl. After incubation for 5 days, MTT reagent (3-(4,5-dimthylthiazol-2-yl)-2,5-diphenyltatrazolium) was added and incubation was continued for 4 h. Formazan crystals generated by reduction of the MTT reagent in mitochondria were solubilized with isopropanol prior to the measurement of absorbance at 560 nm wavelength in a plate reader.
After incubation for 5 days, cell growth was measured by the MTT assay (16).

MCF10A cells = test: MTT cell growth assay; format: cell-based, human; details: Homo sapiens, MCF-10A; sections 'high concentrations (~50 μM)' and 'active in vitro that decreased cell growth'; same figures given in μM elsewhere in Table 6; read-out: IC50 MCF10A (head without unit)
Description: as §4
To extend the results of the […] cell culture screening assay, a subset of compounds were tested in larger cultures. Different concentrations of Compounds 67 and 151 were added to asynchronous subconfluent populations of HCT116 and MCF10A cells. Asynchronous subconfluent populations of HCT116 and MCF10A cells were pre-treated with different concentrations of compound 64 prior to the addition of 3 aminobenzamide (2 mM) MMS (100 μM) or cis-platinum (1 μM). After incubation for 5 days, cell growth was measured by the MTT assay (16).

T1 sequence (P18858 whole entry): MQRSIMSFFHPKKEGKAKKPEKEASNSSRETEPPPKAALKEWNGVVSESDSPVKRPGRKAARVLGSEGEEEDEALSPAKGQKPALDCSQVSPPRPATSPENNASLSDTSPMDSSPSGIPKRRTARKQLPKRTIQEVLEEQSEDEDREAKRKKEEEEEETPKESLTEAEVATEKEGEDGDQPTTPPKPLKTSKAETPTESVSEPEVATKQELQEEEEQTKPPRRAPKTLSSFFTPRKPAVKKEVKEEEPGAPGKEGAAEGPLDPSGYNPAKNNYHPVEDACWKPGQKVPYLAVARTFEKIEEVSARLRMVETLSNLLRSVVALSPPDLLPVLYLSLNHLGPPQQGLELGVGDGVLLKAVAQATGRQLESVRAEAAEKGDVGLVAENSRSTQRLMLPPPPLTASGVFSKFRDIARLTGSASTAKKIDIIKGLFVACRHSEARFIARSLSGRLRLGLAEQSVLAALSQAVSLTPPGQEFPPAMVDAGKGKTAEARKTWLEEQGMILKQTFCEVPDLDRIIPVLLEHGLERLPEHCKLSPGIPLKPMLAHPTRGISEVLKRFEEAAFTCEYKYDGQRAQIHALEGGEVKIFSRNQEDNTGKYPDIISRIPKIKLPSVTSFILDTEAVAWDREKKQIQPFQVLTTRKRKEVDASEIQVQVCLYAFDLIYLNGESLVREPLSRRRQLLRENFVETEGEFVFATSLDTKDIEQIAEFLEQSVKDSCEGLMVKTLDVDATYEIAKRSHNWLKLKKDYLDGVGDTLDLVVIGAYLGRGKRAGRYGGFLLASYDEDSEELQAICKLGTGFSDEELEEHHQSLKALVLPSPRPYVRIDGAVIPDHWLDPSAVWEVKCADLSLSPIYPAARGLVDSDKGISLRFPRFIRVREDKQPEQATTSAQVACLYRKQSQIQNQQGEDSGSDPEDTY

| inhibition at 100 µM (hLigI; read-out: % of inhibition @ 100 μM (Helen's data) hLigI) [%] | IC50 (HCT116 cells [3]; cell growth, compound alone, read-out: IC50 (μM) HCT116) [µM] | IC50 (HCT116 cells [3]; sections 'high concentrations (~50 μM)' and 'active in vitro that decreased cell growth', same figures given in μM elsewhere in Table 6, read-out: IC50 HCT116 (head without unit)) [µM] | inhibition at 100 µM (human DNA ligase III; read-out: % of inhibition @ 100 μM (Helen's data) hLigIII) [%] | inhibition at 100 µM (human DNA ligase IV; read-out: % of inhibition @ 100 μM (Helen's data) hLigIV) [%] | Compound | % activity Inhibition hLigI 100 uM (hLigI; 100 uM) | inhibition at 100 µM (hLigI; read-out: In vitro % inhib hLigI 100) [%] | inhibition at 100 µM (human DNA ligase III; 100 μM, read-out: In vitro % inhib hLigIII 100) [%] | inhibition at 100 µM (human DNA ligase III; 100 uM, Ø not defined (0 in Table 5A), read-out: % activity Inhibition hLigIII 100 uM) [%] | inhibition of human DNA ligase III, in words (human DNA ligase III; in vitro screen) | inhibition at 100 µM (human DNA ligase IV; read-out: In vitro % inhib hLigIV 100) [%] | % activity Inhibition hLigIV 100 uM (human DNA ligase IV; 100 uM, Ø not defined (0 in Table 5A)) | inhibition at 100 µM (T4 DNA ligase) [%] | EC50 [1] [µM] | MMS: Ratios of IC50 HCT116 (HCT116 cells [2]) | IC50 (MCF10A cells) [µM] |
| --- | --- | --- | --- | --- | --- | --- | --- | --- | --- | --- | --- | --- | --- | --- | --- | --- |
|  |  |  |  |  | N#Cc1cn(CCCCCCCc2[nH]c(=O)[nH]c(=O)c2C#N)c(=O)[nH]c1=O [Compound 209] | Ø | 0 | 71 ± 3 | 70.5 ± 2.6 | specific for DNA ligase III | 0 | Ø | 0 | > 100 |  |  |
| < 20 | 10 to 50 | 10 to 50 | 42 | 40 | O=C(COC(=O)c1ccc2ccccc2c1O)c1cccs1 [Compound 214] |  |  |  |  |  |  |  |  |  | ID (2) | > 50 |
